Columns and labels:
Assay in all cases: KINOMEscan (ScanMAX) kinase profiling
Assay type in all cases: binding
[1] = molecular target: T1, panel of 468 kinases (Homo sapiens, UniProt O75116); conditions: ROCK2; 1 μM; read-out: % control
T1 construct: purchased KINOMEscan (ScanMAX) service

[2] = molecular target: T2, panel of 468 kinases (Homo sapiens, UniProt O43318); conditions: TAK1; 1 μM; read-out: % control
T2 construct: purchased KINOMEscan (ScanMAX) service
T2 sequence (O43318 1-606): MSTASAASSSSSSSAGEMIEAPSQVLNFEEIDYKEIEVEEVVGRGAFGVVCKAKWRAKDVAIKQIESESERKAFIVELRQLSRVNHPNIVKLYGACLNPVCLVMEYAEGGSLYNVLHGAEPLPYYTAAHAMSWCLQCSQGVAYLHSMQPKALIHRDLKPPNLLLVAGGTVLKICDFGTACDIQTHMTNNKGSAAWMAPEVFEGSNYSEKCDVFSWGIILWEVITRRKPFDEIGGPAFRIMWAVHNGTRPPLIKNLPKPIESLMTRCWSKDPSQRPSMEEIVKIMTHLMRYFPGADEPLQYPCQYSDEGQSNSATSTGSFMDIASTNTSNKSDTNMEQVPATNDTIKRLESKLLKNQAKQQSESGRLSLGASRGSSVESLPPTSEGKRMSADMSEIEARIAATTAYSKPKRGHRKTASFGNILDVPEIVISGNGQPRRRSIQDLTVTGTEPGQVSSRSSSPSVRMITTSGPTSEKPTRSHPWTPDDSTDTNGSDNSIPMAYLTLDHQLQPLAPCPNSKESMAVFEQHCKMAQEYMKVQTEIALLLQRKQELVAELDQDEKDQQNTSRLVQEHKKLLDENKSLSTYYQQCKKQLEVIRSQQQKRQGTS

[3] = molecular target: T3, panel of 468 kinases (Homo sapiens, UniProt Q8IYT8); conditions: ULK2; 1 μM; read-out: % control
T3 construct: purchased KINOMEscan (ScanMAX) service
T3 sequence (Q8IYT8 1-1036): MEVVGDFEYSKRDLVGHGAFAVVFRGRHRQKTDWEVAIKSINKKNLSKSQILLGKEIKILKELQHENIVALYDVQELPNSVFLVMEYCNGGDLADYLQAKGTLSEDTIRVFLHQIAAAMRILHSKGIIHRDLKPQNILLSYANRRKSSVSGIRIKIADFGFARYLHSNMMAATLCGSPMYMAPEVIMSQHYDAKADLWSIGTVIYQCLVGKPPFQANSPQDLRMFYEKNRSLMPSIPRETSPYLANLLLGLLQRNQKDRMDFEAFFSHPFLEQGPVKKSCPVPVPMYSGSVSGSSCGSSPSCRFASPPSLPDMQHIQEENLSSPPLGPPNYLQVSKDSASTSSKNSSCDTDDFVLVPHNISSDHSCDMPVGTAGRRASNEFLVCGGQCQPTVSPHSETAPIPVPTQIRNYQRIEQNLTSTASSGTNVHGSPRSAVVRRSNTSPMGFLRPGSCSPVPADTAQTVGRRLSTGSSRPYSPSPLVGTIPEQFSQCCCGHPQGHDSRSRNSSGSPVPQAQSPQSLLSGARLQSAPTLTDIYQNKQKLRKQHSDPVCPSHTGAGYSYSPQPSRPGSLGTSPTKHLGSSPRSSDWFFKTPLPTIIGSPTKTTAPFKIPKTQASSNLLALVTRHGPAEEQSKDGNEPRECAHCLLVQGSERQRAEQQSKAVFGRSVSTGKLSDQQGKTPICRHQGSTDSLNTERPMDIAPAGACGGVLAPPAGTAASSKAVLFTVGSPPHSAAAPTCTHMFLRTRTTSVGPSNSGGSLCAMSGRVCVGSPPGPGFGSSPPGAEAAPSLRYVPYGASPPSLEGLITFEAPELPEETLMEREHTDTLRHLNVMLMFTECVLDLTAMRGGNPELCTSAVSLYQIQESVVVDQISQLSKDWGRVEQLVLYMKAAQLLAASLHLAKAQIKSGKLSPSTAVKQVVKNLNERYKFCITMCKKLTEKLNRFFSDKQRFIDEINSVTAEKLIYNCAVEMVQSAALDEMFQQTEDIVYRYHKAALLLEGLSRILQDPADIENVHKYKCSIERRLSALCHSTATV

[4] = molecular target: T4, panel of 468 kinases (Homo sapiens, UniProt Q8NFD2); conditions: ANKK1; 1 μM; read-out: % control
T4 construct: purchased KINOMEscan (ScanMAX) service
T4 sequence (Q8NFD2 1-765): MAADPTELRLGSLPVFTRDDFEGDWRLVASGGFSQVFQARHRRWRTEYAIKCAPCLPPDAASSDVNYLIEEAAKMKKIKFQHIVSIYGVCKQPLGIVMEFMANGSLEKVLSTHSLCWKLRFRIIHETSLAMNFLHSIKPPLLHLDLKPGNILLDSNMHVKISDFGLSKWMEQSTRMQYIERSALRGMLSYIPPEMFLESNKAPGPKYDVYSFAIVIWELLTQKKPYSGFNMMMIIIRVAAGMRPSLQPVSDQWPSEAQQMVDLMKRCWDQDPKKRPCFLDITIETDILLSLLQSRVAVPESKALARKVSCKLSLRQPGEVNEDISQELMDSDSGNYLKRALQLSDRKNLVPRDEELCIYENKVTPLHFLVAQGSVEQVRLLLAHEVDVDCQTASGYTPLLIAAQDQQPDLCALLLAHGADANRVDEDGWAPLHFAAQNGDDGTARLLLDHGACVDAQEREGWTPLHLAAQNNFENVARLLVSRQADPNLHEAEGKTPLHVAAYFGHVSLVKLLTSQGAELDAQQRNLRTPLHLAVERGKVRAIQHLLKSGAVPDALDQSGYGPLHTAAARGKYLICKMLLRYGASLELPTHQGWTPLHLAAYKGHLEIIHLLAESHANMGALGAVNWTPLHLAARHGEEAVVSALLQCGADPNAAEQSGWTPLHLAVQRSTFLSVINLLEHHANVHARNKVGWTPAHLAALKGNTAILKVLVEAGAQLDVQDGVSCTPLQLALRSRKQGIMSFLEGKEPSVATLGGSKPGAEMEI

T1 sequence (O75116 whole entry): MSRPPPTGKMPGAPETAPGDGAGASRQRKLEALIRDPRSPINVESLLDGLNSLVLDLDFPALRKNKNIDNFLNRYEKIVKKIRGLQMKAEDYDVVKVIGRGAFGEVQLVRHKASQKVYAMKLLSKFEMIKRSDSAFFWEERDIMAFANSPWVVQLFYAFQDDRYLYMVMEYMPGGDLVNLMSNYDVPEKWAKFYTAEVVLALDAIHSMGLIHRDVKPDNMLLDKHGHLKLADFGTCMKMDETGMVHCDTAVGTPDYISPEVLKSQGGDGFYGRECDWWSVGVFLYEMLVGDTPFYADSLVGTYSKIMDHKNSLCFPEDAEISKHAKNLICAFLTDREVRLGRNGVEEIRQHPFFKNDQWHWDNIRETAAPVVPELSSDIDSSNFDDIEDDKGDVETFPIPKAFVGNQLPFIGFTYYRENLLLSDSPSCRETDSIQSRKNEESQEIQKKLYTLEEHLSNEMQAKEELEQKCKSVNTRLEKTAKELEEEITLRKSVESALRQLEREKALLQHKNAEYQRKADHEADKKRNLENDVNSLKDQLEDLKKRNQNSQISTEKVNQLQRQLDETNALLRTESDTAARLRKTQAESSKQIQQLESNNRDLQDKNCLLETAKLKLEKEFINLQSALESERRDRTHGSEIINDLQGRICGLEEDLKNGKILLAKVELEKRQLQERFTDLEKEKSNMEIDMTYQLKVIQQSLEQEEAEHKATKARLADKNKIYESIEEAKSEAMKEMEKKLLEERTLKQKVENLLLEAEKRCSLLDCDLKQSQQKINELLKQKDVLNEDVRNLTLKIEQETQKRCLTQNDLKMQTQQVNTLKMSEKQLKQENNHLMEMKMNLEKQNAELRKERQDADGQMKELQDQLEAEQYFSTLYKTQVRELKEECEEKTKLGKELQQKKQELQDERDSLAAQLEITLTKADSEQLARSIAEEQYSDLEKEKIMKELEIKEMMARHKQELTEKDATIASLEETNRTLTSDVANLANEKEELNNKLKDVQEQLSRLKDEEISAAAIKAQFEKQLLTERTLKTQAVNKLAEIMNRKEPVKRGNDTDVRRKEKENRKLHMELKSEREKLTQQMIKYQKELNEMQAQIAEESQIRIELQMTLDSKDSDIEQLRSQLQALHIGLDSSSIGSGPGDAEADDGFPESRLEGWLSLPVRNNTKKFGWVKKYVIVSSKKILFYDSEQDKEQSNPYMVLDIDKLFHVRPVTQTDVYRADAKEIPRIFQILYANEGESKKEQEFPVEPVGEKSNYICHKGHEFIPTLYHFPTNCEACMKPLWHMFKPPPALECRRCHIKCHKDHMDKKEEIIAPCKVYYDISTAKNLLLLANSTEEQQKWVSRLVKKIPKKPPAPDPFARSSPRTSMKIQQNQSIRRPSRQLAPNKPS

| Structure (SMILES) | remaining binding at 1 µM [1] [%] | remaining binding at 1 µM [2] [%] | remaining binding at 1 µM [3] [%] | remaining binding at 1 µM [4] [%] |
| --- | --- | --- | --- | --- |
| CNc1nc(Nc2ccc(S(=O)(=O)N3CCC(N4CCOCC4)CC3)cc2OC)nc2[nH]cc(Cl)c12 [Compound 12, 5-chloro-N2-(2-methoxy-4-((4-morpholinopiperidin-1-yl)sulfonyl)phenyl)-N4-methyl-7H-pyrrolo[2,3-d]pyrimidine-2,4-diamine] | 86 | 100 | 96 | 73 |
| CNc1nc(Nc2ccc(P3(=O)CCN(C4CCOCC4)CC3)cc2OC)nc2[nH]cc(Cl)c12 [Compound 77, 4-(4-((5-chloro-4-(methylamino)-7H-pyrrolo[2,3-d]pyrimidin-2-yl)amino)-3-methoxyphenyl)-1-(tetrahydro-2H-pyran-4-yl)-1,4-azaphosphinane 4-oxide] | 96 | 84 | 91 | 65 |
| CNc1nc(Nc2ccc(C(=O)N3CCC(N4CCOCC4)CC3)c3c2OCO3)nc2[nH]cc(Cl)c12 [Compound 75, (7-((5-chloro-4-(methylamino)-7H-pyrrolo[2,3-d]pyrimidin-2-yl)amino)benzo[d][1,3]dioxol-4-yl)(4-morpholinopiperidin-1-yl)methanone] | 35 | 29 | 79 | 41 |

From patent US12479847B2 (DANA-FARBER CANCER INSTITUTE, INC., priority 2019, dated 2025)
